Laboratory results published in article PMC11372076, “A dual inhibitor of PIP5K1C and PIKfyve prevents SARS-CoV-2 entry into cells” (Experimental & Molecular Medicine, 2024).
pEC50, pIC50: −log10 of the molar value.

Experiments:
SARS-CoV-2 [1] = format: cell-based
Vero cells = assay: Endosomal pH change test with acridine orange; format: cell-based; settings: 1 µM for 1 h
Protocol: This image-based experiment was performed according to our previous report with some modifications. Vero cells were cultured in a glass bottom 35 mm dish (6 × 10^4 cells per well) overnight. Each compound, including 1 µM UNC3230, apilimod or UNI418, was added to Vero cells for 1 h at 37 °C. The cells were stained with acridine orange (Sigma‒Aldrich, A9231) at a final concentration of 4 µg/mL for 30 min. After washing with PBS twice, images were acquired using a confocal microscope (Zeiss LSM 700, Baden-Württemberg, Germany) at two emission wavelengths, 493 to 560 nm and 590 to 720 nm, with excitation at 488 nm. The green-to-red ratio or vacuole size was measured using the built-in software ZEN 3.1.
Fig. 3 UNI418 negatively affects autophagosome-lysosome fusion and endosome acidification. a Live-cell imaging of HEK293T cells stably expressing mCherry-GFP-LC3 treated with 0.5 μM UNI418 at the indicated time points; the images within the white rectangular boxes are magnified on the right side. Scale bar, 30 µm. The number (b) and area (c) of GFP-positive dots per cell were quantified by ImageXpress. d Immunofluorescence images illustrating the inhibition of endolysosomal acidification by UNI418. Vero cells were treated with the mock control or 1 µM UNC3230, apilimod or UNI418 for 1 h at 37 °C. Acridine orange (4 µg/mL) was added to the compound-treated live cells, followed by additional incubation for 30 min. The cells were analyzed by confocal microscopy using two emission wavelengths at 493–560 (green) and 590–720 nm (red) after excitation at 488 nm. Merged images are presented, and images within the white rectangular boxes are magnified on the right side. Original magnification, 630×. The green-to-red fluorescence intensity ratio (e) and the area of fluorescent spots (f) were quantified. b, c, e, f The data are presented as the means ± SEMs, with a minimum of 200 spots. Statistical significance was determined by Student’s t test; *p < 0.05, **p < 0.01, ***p < 0.001 and ****p < 0.0001. n.s., not significant.

in vitro = settings: African green monkey
PIKFYVE = PIKFYVE (Homo sapiens, UniProt Q9Y2I7); assay: SelectScreen Kinase Profiling Service (PIPK profiling); format: biochemical; settings: [ATP] 100 μM; 1 μM (concentration stated for UNI418 only)
Chain of PIKFYVE (Q9Y2I7 whole entry): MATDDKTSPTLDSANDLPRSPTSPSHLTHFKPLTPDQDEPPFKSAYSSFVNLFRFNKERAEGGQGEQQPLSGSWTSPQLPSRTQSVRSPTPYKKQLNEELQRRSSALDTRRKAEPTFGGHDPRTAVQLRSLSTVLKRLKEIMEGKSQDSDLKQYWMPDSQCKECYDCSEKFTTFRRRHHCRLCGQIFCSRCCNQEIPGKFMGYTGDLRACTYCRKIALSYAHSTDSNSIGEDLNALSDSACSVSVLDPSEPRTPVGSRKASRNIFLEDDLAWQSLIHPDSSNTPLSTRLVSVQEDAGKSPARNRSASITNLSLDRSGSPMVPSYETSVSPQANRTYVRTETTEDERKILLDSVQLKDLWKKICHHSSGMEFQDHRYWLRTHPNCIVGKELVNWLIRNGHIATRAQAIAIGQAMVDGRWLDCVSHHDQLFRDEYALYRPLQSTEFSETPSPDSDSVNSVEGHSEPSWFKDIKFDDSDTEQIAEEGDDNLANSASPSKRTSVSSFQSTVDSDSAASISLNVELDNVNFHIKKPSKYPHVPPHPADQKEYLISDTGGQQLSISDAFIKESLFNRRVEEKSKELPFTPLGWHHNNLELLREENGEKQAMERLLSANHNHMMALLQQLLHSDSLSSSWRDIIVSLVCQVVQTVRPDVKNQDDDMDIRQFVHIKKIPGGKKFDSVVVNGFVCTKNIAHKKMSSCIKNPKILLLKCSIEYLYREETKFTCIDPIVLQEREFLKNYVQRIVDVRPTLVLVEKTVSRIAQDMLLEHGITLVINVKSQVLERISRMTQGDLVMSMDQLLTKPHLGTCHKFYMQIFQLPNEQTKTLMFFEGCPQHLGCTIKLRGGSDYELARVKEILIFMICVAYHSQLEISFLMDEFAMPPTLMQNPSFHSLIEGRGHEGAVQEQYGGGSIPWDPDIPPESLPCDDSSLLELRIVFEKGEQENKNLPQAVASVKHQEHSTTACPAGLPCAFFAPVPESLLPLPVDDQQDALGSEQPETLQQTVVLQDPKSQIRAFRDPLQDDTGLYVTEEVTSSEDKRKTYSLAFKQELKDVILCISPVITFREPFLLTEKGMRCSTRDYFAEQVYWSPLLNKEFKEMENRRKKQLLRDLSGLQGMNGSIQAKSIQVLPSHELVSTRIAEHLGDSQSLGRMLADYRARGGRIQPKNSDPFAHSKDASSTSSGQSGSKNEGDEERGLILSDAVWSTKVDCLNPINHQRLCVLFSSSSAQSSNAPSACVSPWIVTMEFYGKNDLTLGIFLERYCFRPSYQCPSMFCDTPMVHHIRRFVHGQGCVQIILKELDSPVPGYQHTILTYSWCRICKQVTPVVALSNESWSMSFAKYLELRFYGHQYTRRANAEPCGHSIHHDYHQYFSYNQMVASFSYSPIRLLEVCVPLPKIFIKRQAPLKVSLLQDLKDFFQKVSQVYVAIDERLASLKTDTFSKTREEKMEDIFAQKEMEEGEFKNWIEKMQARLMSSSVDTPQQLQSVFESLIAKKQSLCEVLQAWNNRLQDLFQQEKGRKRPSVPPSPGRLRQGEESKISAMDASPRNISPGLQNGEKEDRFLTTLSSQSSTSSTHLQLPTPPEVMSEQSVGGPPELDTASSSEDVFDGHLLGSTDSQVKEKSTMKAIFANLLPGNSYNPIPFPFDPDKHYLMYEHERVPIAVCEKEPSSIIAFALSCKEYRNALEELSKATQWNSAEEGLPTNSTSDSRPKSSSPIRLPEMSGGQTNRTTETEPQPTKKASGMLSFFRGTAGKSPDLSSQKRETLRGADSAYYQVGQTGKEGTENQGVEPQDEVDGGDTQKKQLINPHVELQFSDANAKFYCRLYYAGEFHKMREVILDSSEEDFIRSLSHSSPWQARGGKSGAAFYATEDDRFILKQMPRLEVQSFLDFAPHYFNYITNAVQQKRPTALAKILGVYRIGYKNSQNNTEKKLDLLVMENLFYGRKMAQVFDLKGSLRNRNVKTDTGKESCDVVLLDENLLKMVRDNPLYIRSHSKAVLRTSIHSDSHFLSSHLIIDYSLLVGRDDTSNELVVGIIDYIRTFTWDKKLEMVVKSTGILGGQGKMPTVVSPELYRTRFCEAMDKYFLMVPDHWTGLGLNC
Source text: UNI418 has a core structure consisting of 4-quinazolinamine (Fig. 1a, green), which is often found in kinase inhibitors. […] The phosphoinositide (PI) system is a crucial regulatory mechanism in membrane trafficking and is tightly regulated through phosphorylation cascades by multiple phosphatidylinositol phosphate kinases (PIPKs)[30]. We hypothesized that UNI418 may inhibit PIPK(s) and performed PIPK profiling analysis. […] To test whether UNI418 interacts with PIP5K1C and PIKfyve, we performed a CETSA, which determines the characteristics of protein stabilization upon ligand binding to the target protein[31]. UNI418- or DMSO-treated cell lysates were incubated at different temperatures, and the presence of the target protein in the soluble fraction was analyzed by Western blotting (Fig. 1c).
Fig. 1 UNI418 specifically targets PIP5K1 and PIKfyve. a Chemical structure of UNI418. The 4-quinazolinamine core is highlighted in green. b Table of the kinase profiling analysis. Inhibition of several kinases was determined at a 1 μM concentration of UNI418 and analyzed by the SelectScreen Kinase Profiling Service (Thermo Fisher Scientific). c Cellular thermal shift assay. Ectopically expressed GFP-PIP5K1C and GFP-PIKfyve were heated to the indicated temperatures with/without UNI418, and the presence of protein in the soluble fraction was analyzed by Western blot analysis. TEXT PRINTED IN THE PICTURE: (b) UNI418: % Inhibition (mean): 11 ([ATP] Tested (μM): 10; Kinase Tested: PI4K2A (PI4K2 alpha)); % Inhibition (mean): 4 ([ATP] Tested (μM): 10; Kinase Tested: PI4K2B (PI4K2 beta)); % Inhibition (mean): -6 ([ATP] Tested (μM): 10; Kinase Tested: PI4KA (PI4K alpha)); % Inhibition (mean): 48 ([ATP] Tested (μM): Km app; Kinase Tested: PI4KB (PI4K beta)); % Inhibition (mean): 20 ([ATP] Tested (μM): 10; Kinase Tested: PIK3C2B (PI3K-C2 beta)); % Inhibition (mean): 22 ([ATP] Tested (μM): 10; Kinase Tested: PIK3C2G (PI3K-C2 gamma)); % Inhibition (mean): 4 ([ATP] Tested (μM): 100; Kinase Tested: PIK3C3 (hVPS34)); % Inhibition (mean): 8 ([ATP] Tested (μM): 10; Kinase Tested: PIK3CA/PIK3R3 (p110 alpha/p55 gamma)); % Inhibition (mean): 7 ([ATP] Tested (μM): 10; Kinase Tested: PIK3CB/PIK3R2 (p110 beta/p85 beta)); % Inhibition (mean): 9 ([ATP] Tested (μM): 10; Kinase Tested: PIP4K2A); % Inhibition (mean): 67 ([ATP] Tested (μM): 10; Kinase Tested: PIP5K1A); % Inhibition (mean): 93 ([ATP] Tested (μM): 10; Kinase Tested: PIP5K1B); % Inhibition (mean): 93 ([ATP] Tested (μM): 10; Kinase Tested: PIP5K1C); % Inhibition (mean): 100 ([ATP] Tested (μM): 100; Kinase Tested: PIKFYVE) | (b) Apilimod: % Inhibition (mean): 100 ([ATP] Tested (μM): 100; Kinase Tested: PIKFYVE) […]

[2] = tested on: ACE2-mediated endocytosis in HEK293T cells; format: cell-based; settings: 0.5 μM compound, 20 μg/mL spike-RBD, 2 h
cathepsin D = assay: Cathepsin D maturation by Western blot; format: cell-based
[3] = tested on: Wuhan-Hu-1 spike-pseudotyped virus; assay: microbe, parasite or virus in culture; format: cell-based, SARS-CoV-2
SARS-CoV-2 [4] = assay: microbe, parasite or virus in culture; format: cell-based, SARS-CoV-2 (hCoV-19/Korea/KCDC06/2020); settings: for pEC50: Severe acute respiratory syndrome coronavirus 2, Vero, 48 h, read-out: EC50 (reducing number of spike-positive cells by 50%); for selectivity index (SI), ratio of CC50 to EC50: Vero cells, Day 2

Compound	reduction in the levels of the viral NP gene (viral genome copies) (SARS-CoV-2 [1])	green-to-red ratio of fluorescent spots relative to mock-treated sample (Vero cells) [fold]	CC50 (in vitro) [nM]	inhibition at 1 µM (PIKFYVE) [%]	ACE2-mediated endocytosis triggered by spike-RBD [2]	proteolytic cleavage (maturation) of cathepsin D (cathepsin D)	pseudotyped virus entry [3]	pEC50 (SARS-CoV-2 [4])	selectivity index (SI), ratio of CC50 to EC50 (SARS-CoV-2 [4])	pIC50 ([3]; Severe acute respiratory syndrome coronavirus 2, 293T/ACE2, read-out: concentration that inhibited spike-mediated viral entry by 50% compared to maximal inhibition)
c1ccc(-c2cc(Nc3nc(-c4ccncc4)nc4ccccc34)n[nH]2)cc1 [UNI418, N -(5-phenyl-1 H -pyrazol-3-yl)-2-(4-pyridinyl)-4-quinazolinamine]	approximately 2 log	6.3	62300	100	successfully inhibited	considerably inhibited	markedly inhibited	5.85	45.6	
Cc1cccc(/C=N/Nc2cc(N3CCOCC3)nc(OCCc3ccccn3)n2)c1 [apilimod]	approximately 2 log	2.2	73600	100	did not obviously inhibit	largely inhibited		6.52	272.6	8.30
